Literature values in patent US9890151B2, “3,5-dichloro,4-(3,4-(cyclo-)alkoxyphenyl)- 2-carbonyloxy)ethyl)pyridine derivatives as PDE-4 inhibitors” (CHIESI FARMACEUTICI S.p.A., priority 2014, dated 2018).

[1] = patients with severe disease who have frequent exacerbations and mucus hypersecretion

Structure (SMILES): O=C(Nc1c(Cl)cncc1Cl)c1ccc(OC(F)F)c(OCC2CC2)c1 [roflumilast]
- reduction of the numbers of neutrophils in sputum (COPD patients, oral roflumilast given over 4 weeks): 36%
- improvement of FEV 1 [1]: approximately 50 mL
- reduction of exacerbation [1]: about 15%
